Article PMC5519041, “Differing roles for short chain fatty acids and GPR43 agonism in the regulation of intestinal barrier function and immune responses” (PLoS ONE, 2017)
Like-named read-outs stand apart in the source and are kept apart here.

Columns and labels:
human GPR43 = target: T1, human GPR43 (Homo sapiens, UniProt O15552); test: cAMP inhibition assay (HTRF), forskolin-induced cAMP in CHO cells stably expressing human GPR43; type: cell-based; conditions: inhibition of forskolin-induced cAMP production
T1 construct: expressed in transfected cells
T1 sequence (O15552 1-330): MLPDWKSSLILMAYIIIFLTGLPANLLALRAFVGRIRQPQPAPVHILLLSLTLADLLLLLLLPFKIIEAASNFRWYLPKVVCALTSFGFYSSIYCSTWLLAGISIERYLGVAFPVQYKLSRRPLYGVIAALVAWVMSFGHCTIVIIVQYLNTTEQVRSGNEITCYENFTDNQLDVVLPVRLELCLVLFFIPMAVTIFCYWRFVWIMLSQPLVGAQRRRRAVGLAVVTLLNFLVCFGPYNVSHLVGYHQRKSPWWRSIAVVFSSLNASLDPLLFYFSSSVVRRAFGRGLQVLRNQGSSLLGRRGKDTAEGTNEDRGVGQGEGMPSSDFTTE
Procedure: A competitive, HTRF® immunoassay (CisBio Dynamic 2 cAMP kit) was used to measure the inhibition of cAMP response in CHO cells stably expressing human GPR43. Assay-ready cells were thawed, resuspended in PBS and stimulated with forskolin (3μM final) for 45 minutes at room temperature in the presence of serially diluted natural ligands or test compounds in a 384 well plate (Greiner). Subsequently the cells were lysed by adding lysis buffer containing the cAMP-Tracer and Europium-labeled anti-cAMP antibody according to the manufacturer’s protocol. The signals were recorded using a Perkin Elmer Envision. The raw data was calculated as fluorescence ratio (665nm/620nm) and analyzed using GraphPad Prism Software.

human T cells = test: One-way mixed lymphocyte reaction, T cell proliferation and cytokines; type: cell-based
Source text: Amgen Institutional Review Board approval and consent was obtained for collection and the studies involving human blood. PBMC were obtained from volunteers’ human blood using Ficoll. T cells were isolated using magnetic sorting with a pan T cell isolation kit (Miltenyi Biotec). Stimulator cells were isolated by negative magnetic sorting using anti-CD3 beads to deplete CD3+ cells. The stimulator cells were irradiated and mixed together with the purified T cells in the presence or absence of the SCFA or agonist. Supernatants were collected at day 3 for cytokine measurements using Meso Scale Discovery multiplex kits, and proliferation was measured at day 4 after an 18 hour pulse with 1μCi 3H-thymidine per well.

human FFA2 receptor = target: T2, human FFA2 receptor (Homo sapiens, UniProt O15552); test: Aequorin assay, cytosolic calcium in CHO-K1 cells stably expressing aequorin and human FFA2 receptor; type: cell-based; conditions: CHO-K1 cells stably expressing human GPR43, read-out: Ca^2+ (Aequorin)
T2 construct: expressed in transfected cells
T2 sequence (O15552 1-330): T1 sequence (O15552 1-330)
Procedure: Agonist-induced receptor activation was determined by an increase in cytosolic calcium concentration in CHO-K1 cells stably expressing the mitochondrial targeted aequorin and human FFA2 receptor. The increased cytosolic calcium was monitored by luminescence emitted from aequorin as previously described

human PBMC = test: LPS stimulation of PBMC, cytokine production; type: cell-based; conditions: for effect on LPS-induced cytokine production: μM range; for effect on LPS-induced cytokine production / IC50: 1 μg/mL LPS, 18 hours; for IC50: Homo sapiens, PBMC, 45 minutes preincubation
Procedure: Amgen Institutional Review Board approval and consent was obtained for collection and the studies involving human blood. PBMC were isolated from heparinized blood using Ficoll and then plated onto 96-well plates. Butyrate or GPR43 agonists were incubated with the PBMC for 45 minutes prior to the addition of 1 μg/mL lipopolysaccharide (LPS). Cell culture supernatants were collected at 18 hours post-stimulation. TNFα, IL-1β and IL-6 production were measured using Meso Scale Discovery multiplex kits.

C2BBe1 cells [1] = test: Intestinal barrier function by ECIS in C2BBe1 cells; type: cell-based, human; conditions: 48 hours; for barrier resistance (ECIS), barrier formation: 75 Hz, #58 at 1 uM and 10 uM vs DMSO control
Procedure: Cells were cultured in DMEM containing 10% FBS, and the next day (day 1), the medium was replaced with that containing 0.5% serum. On day 2, media was changed and test agents were added in duplicate in media containing 0.5% serum. The experiment was concluded 48 hours later (day 4). Barrier resistance was measured on the ECIS instrument. The plots shown are at 75 Hz beginning at day 2 post-addition of the test agents with resistance values normalized to those observed just prior to the addition of test agents. For barrier disruption and reformation studies, cells were cultured in transwells in the ECIS array as described above in the presence of 10% serum for one day and 0.5% serum for another day. On day 2, the media was replaced with media containing 0.5% serum and 2.5 mM EGTA (in apical and basolateral chambers). The EGTA was washed off 5 hours later and replaced with media containing 0.5% serum and test agents. Cells were monitored over the next 48 hours for barrier reformation and the plots shown are at 75 Hz with resistance values normalized to those observed just prior to the addition of test agents.

[2] = system: intestinal epithelial cells; parameters: method as in PMID 9142899, PMID 17211138; conditions: published data ref [13], [15]; cited from earlier work
C2BBe1 cells [3] = test: Intestinal barrier function by TEER and Lucifer Yellow in C2BBe1 monolayers
[4] = 72 h, supernatant day 3, read-out: IL-17A IC50

CC(C)[C@H](C(=O)Nc1ncc(F)s1)c1ccc(Cl)cc1 [#44]
EC50 (human GPR43): 1.1 µM | IC50 (human T cells; [4]): 2.45 µM | EC50 (human FFA2 receptor; 10% FBS): 1 µM | EC50 (human FFA2 receptor; No FBS): 0.6 µM | effect on LPS-induced cytokine production (human PBMC): only the highest concentration of the agonist #44 resulted in inhibition of cytokine production

CC(C)(C)[C@H](C(=O)Nc1ncc(-c2ccccc2)s1)c1ccc(Cl)cc1 [#58]
EC50 (human GPR43): 1.8 µM | IC50 (human T cells; [4]): 8.88 µM | EC50 (human FFA2 receptor; 10% FBS): 0.6 µM | EC50 (human FFA2 receptor; No FBS): 0.3 µM | effect on LPS-induced cytokine production (human PBMC): slight increase in some cytokines | barrier resistance (ECIS), barrier formation (C2BBe1 cells [1]): did not result in increased resistance

CCCC(=O)O [Butyrate, butyrate]
concentrations toxic to intestinal epithelial cells [2]: > 5000 µM | EC50 (human GPR43): 1060 µM | toxicity in TEER assays (C2BBe1 cells [3]; 5 mM): appeared to be toxic | effect on transepithelial electrical resistance (TEER) (C2BBe1 cells [3]; C2BBe1 monolayers, day 5): most potent of the three SCFA | IC50 (human T cells; 72 h, supernatant day 3, read-out: IFNγ IC50): 50 µM | IC50 (human T cells; [4]): 60 µM | IC50 (human T cells; day 4, 3H-thymidine, read-out: Proliferation IC50): 170 µM | IC50 (human PBMC; read-out: IL-1β IC50): 440 µM | IC50 (human PBMC; read-out: IL-6 IC50): 2440 µM | IC50 (human PBMC; read-out: TNFα IC50): 130 µM | cell viability (human PBMC; highest concentrations utilized in this assay): not altered | barrier reformation after EGTA disruption (ECIS resistance) (C2BBe1 cells [1]; 2.5 mM EGTA 5 hours, then test agents): earlier and higher levels of resistance | barrier resistance (ECIS), barrier formation (C2BBe1 cells [1]): quicker increase, as well as higher measurements of resistance
